From BindingDB's records for doi:10.1111/cbdd.12445 (Konkuk University, 2015)

Molecular target: Aurora kinase B (Homo sapiens, UniProt Q96GD4)
Assay: Aurora B Kinase Assay

Sequence of Aurora kinase B (Q96GD4 whole entry): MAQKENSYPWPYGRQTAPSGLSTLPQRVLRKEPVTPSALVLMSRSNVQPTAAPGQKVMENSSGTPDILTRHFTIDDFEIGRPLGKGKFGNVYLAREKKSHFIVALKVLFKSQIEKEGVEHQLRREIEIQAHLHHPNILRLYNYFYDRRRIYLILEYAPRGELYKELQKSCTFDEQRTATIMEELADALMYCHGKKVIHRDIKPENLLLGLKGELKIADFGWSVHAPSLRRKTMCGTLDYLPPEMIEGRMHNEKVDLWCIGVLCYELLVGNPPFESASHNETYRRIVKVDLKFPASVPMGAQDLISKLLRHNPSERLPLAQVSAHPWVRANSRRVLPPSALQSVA

`O=c1cc(-c2ccccc2)oc2cc(O)c(O)c(O)c12` and `O=c1cc(-c2ccc(O)cc2)oc2cc(O)c(O)c(O)c12` [5,6,7-trihydroxy-2-(4-hydroxyphenyl)-4H-chromen-4-one] are within 1.5-fold of each other in IC50: 4.06 µM for the first, 3.85 µM for the second.

`COc1cc(-c2oc3cc(O)ccc3c(=O)c2O)ccc1O` [3,7-dihydroxy-2-(4-hydroxy-3-methoxyphenyl)chromen-4-one] and `O=c1c(O)c(-c2ccc(O)c(O)c2)oc2cc(O)ccc12` [2-(3,4-dihydroxyphenyl)-3,7-dihydroxy-chromen-4-one] are within 1.5-fold of each other in IC50: 2.85 µM for the first, 2.63 µM for the second.

`O=c1c(O)c(-c2ccc(O)c(O)c2)oc2cc(O)cc(O)c12` [2-(3,4-dihydroxyphenyl)-3,5,7-trihydroxy-chromone;hydrate] and `COc1cc(-c2oc3cc(O)cc(O)c3c(=O)c2O)ccc1O` are within 1.5-fold of each other in IC50: 3.96 µM for the first, 4.34 µM for the second.

`O=c1cc(-c2ccc(O)cc2)oc2cc(O)cc(O)c12` [Naringenin, 18] and `O=c1cc(-c2ccc(O)c(O)c2)oc2cc(O)cc(O)c12` [2-(3,4-dihydroxyphenyl)-5,7-dihydroxy-4H-chromen-4-one] are within 1.5-fold of each other in IC50: 3.96 µM for the first, 3.88 µM for the second.

Going from `O=c1c(O[C@@H]2O[C@H](CO)[C@@H](O)[C@H](O)[C@H]2O)c(-c2ccc(O)c(O)c2)oc2cc(O)cc(O)c12` [2-(3,4-dihydroxyphenyl)-5,7-dihydroxy-3-[(2S,3R,4S,5S,6R)-3,4,5-trihydroxy-6-(hydroxymethyl)oxan-2-yl]oxychromen-4-one] to `O=c1c(O)c(-c2ccc(O[C@@H]3O[C@H](CO)[C@@H](O)[C@H](O)[C@H]3O)c(O)c2)oc2cc(O)cc(O)c12`, the IC50 rises from 10.7 µM to 29.4 µM (2.7-fold).

Going from `O=c1c(O)c(-c2ccccc2O)oc2cc(O)cc(O)c12` [3,5,7-trihydroxy-2-(2-hydroxyphenyl)chromen-4-one] to `O=c1c(O)c(-c2ccc(O)cc2O)oc2cc(O)cc(O)c12` [2-(2,4-dihydroxyphenyl)-3,5,7-trihydroxychromen-4-one], the IC50 falls from 17.8 µM to 4.71 µM (3.8-fold).

Going from `O=c1c(O)c(-c2ccc(O)c(O)c2)oc2c(O[C@@H]3O[C@H](CO)[C@@H](O)[C@H](O)[C@H]3O)c(O)cc(O)c12` [2-(3,4-dihydroxyphenyl)-3,5,7-trihydroxy-8-[(2S,3R,4S,5S,6R)-3,4,5-trihydroxy-6-(hydroxymethyl)oxan-2-yl]oxychromen-4-one] to `O=c1c(O)c(-c2ccc(O)c(O)c2)oc2c(O)c(O)cc(O)c12`, the IC50 falls from 11.1 µM to 4.1 µM (2.7-fold). The second is the more potent here.

Compared with `O=c1c(O)c(-c2ccccc2)oc2cc(O)cc(O)c12` [norizalpinin], `O=c1c(O)c(-c2ccc(O)cc2)oc2cc(O)cc(O)c12` is 2.4-fold lower in IC50: 9.8 µM for the first, 4.03 µM for the second. The second is the more potent here.

Compared with `COc1ccc(-c2cc(=O)c3c(OC)c(OC)c(OC)cc3o2)cc1OC` [2-(3,4-dimethoxyphenyl)-5,6,7-trimethoxy-4H-chromen-4-one], `COc1cc(-c2cc(=O)c3c(O)c(OC)c(OC)c(OC)c3o2)cc(OC)c1OC` [5-hydroxy-6,7,8-trimethoxy-2-(3,4,5-trimethoxyphenyl)chromen-4-one] is 8-fold higher in IC50: 5.31 µM for the first, 42.7 µM for the second. The first is the more potent here.

`O=C(O)[C@H]1O[C@@H](Oc2cc3oc(-c4ccccc4)cc(=O)c3c(O)c2O)[C@H](O)[C@@H](O)[C@@H]1O` [(2S,3S,4S,5R,6S)-6-(5,6-dihydroxy-4-oxo-2-phenyl-4H-chromen-7-yloxy)-3,4,5-trihydroxy-tetrahydro-2H-pyran-2-carboxylic acid] and `O=c1cc(-c2ccc(O)cc2)oc2cc(O[C@@H]3O[C@H](CO)[C@@H](O)[C@H](O)[C@H]3O[C@@H]3OC[C@](O)(CO)[C@H]3O)cc(O)c12` [7-[(2S,3R,4S,5S,6R)-3-[(2S,3R,4R)-3,4-dihydroxy-4-(hydroxymethyl)oxolan-2-yl]oxy-4,5-dihydroxy-6-(hydroxymethyl)oxan-2-yl]oxy-5-hydroxy-2-(4-hydroxyphenyl)chromen-4-one] are within 1.5-fold of each other in IC50: 12.2 µM for the first, 12.1 µM for the second.

Going from `COc1ccc(-c2oc3cc(O)cc(O)c3c(=O)c2O)cc1O` [3,5,7-trihydroxy-2-(3-hydroxy-4-methoxyphenyl)-4H-chromen-4-one] to `O=c1c(O)c(-c2cc(O)c(O)c(O)c2)oc2cc(O)cc(O)c12`, the IC50 falls from 7.39 µM to 3.98 µM (1.9-fold). The second is the more potent here.

First: O=c1c(O)c(-c2ccccc2)oc2ccccc12 [3-hydroxy-2-phenyl-4H-chromen-4-one]
Second: O=c1c(O)c(-c2ccc(O)c(O)c2)oc2cc(O)c(O)c(O)c12 [2-(3,4-dihydroxyphenyl)-3,5,6,7-tetrahydroxy-4H-chromen-4-one]
The IC50 of the first is 1.6-fold higher: 4.29 µM for the first, 2.62 µM for the second. The second is the more potent here.

`C[C@@H]1O[C@@H](Oc2c(-c3cc(O)c(O)c(O)c3)oc3cc(O)cc(O)c3c2=O)[C@H](O)[C@H](O)[C@H]1O` [5,7-dihydroxy-3-[(2S,3R,4R,5R,6S)-3,4,5-trihydroxy-6-methyloxan-2-yl]oxy-2-(3,4,5-trihydroxyphenyl)chromen-4-one] showed an IC50 of 3.89 µM.
